From publication PMC11477294, “In Vitro Profiling of the Antiviral Peptide TAT-I24” (International Journal of Molecular Sciences, 2024)
Where a SMILES comes first, the peptide text is derived from it.

Tests used:
cells = settings: not associated with cell toxicity; cited from earlier work
HEK293 cells = assay: Cell viability assay (CellTiter-Blue) in HEK293 cells; format: cell-based; settings: 72 h at 37 °C, 3-fold dilution series starting with 20 µM, triplicate, non-linear regression (curve fit)
Protocol: HEK293 cells were seeded at a density of 2.5 × 10^3 cells/100 µL per well in a 96-well plate (Sarstedt, Germany). In addition, a serial 1:2 dilution of the cell suspension was added to each plate to generate a standard curve. On the next day, cells were treated with serial 1:3 peptide dilutions in triplicate and incubated for 72 h at 37 °C. Then, 20 µL of CellTiter-Blue® Cell Viability Assay (Promega, Mannheim, Germany) was added to each well and incubated at 37 °C for a further 1–2 h. Fluorescence was recorded using a GloMax®-Multi Detection System (Promega, Mannheim, Germany). The percentage of viable cells was calculated from the cell dilution series from each plate by linear regression analysis. The selectivity index was calculated using the following formula: SI = CC50/IC50.
Figure S1. Cell viability assay in HEK293 cells in the presence of peptides. Cells were incubated with 3 -fold dilution series of peptides starting with a concentration of 20 µM for 72 hours and measured using the Cell Titer Blue assay. Curve fitting of % viable cells of untrea ted control was performed using Graph Pad Prism softwar e.
(1 picture or pasted object on this page, not shown here)

[1] = system: human red blood cells (RBCs); assay: Hemolysis assay with red blood cells; format: cell-based; settings: 1 h at 37 °C
Protocol: Blood from healthy volunteers was collected by venipuncture (Greiner Bio-One, Kremsmünster, Austria) into K2E K2EDTA VacuetteTM tubes (Greiner Bio-One, Kremsmünster, Austria) with 4 mL blood. The assay for hemolysis was adapted from Sæbo et al.. Blood was centrifuged at 1000× g for 10 min, and plasma was kept for further use. Red blood cells were then resuspended in 10 mL PBS and centrifuged again at 1000× g for a total of three times. Cells were then counted using a hemocytometer and seeded at a cell number of 1 × 10^7 cells/100 µL PBS per well in conical 96-well plates (ThermoFisher, Darmstadt, Germany). Next, 1:2 peptide dilutions starting from 40 µM either in PBS or 10% donor serum were prepared, and 100 µL was added to 100 µL of RBC. Plates were then incubated for one hour at 37 °C. As the positive control, three wells with 100 µL RBCs were treated with 100 µL PBS + 0.5% Triton X-100. After incubation, plates were centrifuged at 1000× g for 5 min and supernatants were transferred to flat 96-well plates. Optical density (OD) was determined at 450 nm using a GloMax®-Multi Detection System (Promega, Mannheim, Germany). Images from RBCs from light microscopy and centrifuged plates were taken using an iPhone 12 mini.

[2] = system: MCMV pM123/IE1 protein expression; assay: pM123/IE1 immunofluorescence in MCMV-infected NIH/3T3 cells; format: cell-based, mouse cytomegalovirus; settings: MCMV MOI 1, 6 h post-infection
Protocol: NIH/3T3 cells were seeded at a density of 2 × 10^4 cells/250 µL per well in ibiTreat 8-well chambers (ibidi, Gräfelfing, Germany) and allowed to attach overnight at 37 °C. On the next day, cells were treated with peptides and infected with MCMV at an MOI of 1 with the aid of centrifugal enhancement, twice at 800× g for 15 min. After 6 h of incubation at 37 °C, the supernatants were removed and cells were fixed with 5% formaldehyde for 1 h at room temperature, followed by permeabilization with 0.5% Triton X-100 (Sigma Aldrich, Schnelldorf, Germany) in PBS for 10 min at room temperature. Cells were then incubated with 3% bovine serum albumin (BSA; Sigma Aldrich, Schnelldorf, Germany) in PBS for one hour. After that, anti-m123/IE-1 antibody (clone IE1.01; Center for Proteomics, Rijeka, Croatia) was added at a 1:400 dilution in PBS + 1% BSA and slides were incubated overnight at 4 °C. On the next day, wells were washed twice with PBS. […]

human PBMCs = assay: LPS-induced cytokine release in PBMCs (ELISA); format: cell-based; settings: three peptide concentrations, 0.25 µg/mL LPS, 24 h, duplicate, versus control without peptides
Protocol: Isolation of PBMCs was performed by adding 3 mL blood on a 3 mL layer of Histopaque-1077 (Sigma Aldrich, Schnelldorf, Germany) and centrifuged at 400× g for 30 min at room temperature with the lowest brake and acceleration settings. After centrifugation, plasma was aspirated and the PBMC layer was transferred to a 15 mL conical centrifugation tube. Cells were resuspended in 10 mL PBS, followed by centrifugation at 250× g for 10 min. The cell pellet was resuspended in 5 mL PBS, followed by centrifugation at 250× g for 10 min for a total of three times. Finally, the pellet was resuspended in 1 mL cell culture medium supplemented with 10% FCS. Cells were then seeded in a 48-well plate at 2.5 × 10^5 cells/125 µL per well, treated with 125 µL peptide dilutions in the absence and presence of 0.25 µg/mL lipopolysaccharide (LPS) from Escherichia coli (Sigma-Aldrich, Schnelldorf, Germany) and incubated at 37 °C for 24 h. Supernatants were then collected for subsequent analysis by ELISA.
ELISA was performed using human tumor necrosis factor-α (TNF-α) and interleukin-6 (IL-6) ELISA MAX^TM De Luxe Sets from Biolegend (San Diego, CA, USA) according to the manufacturer’s instructions. Supernatants were diluted 1:5 for TNF-α and 1:500 for IL-6.

[3] = system: MCMV m123/ie-1 transcript; assay: m123/ie-1 transcript qPCR in MCMV-infected NIH/3T3 cells; format: cell-based, mouse cytomegalovirus; settings: MCMV MOI 1, two hours post-infection, duplicate treatments
Protocol: NIH/3T3 cells were seeded at a density of 2 × 10^4 cells/250 µL per well in a 48-well plate and allowed to attach overnight at 37 °C. On the next day, cells were treated with peptides at the indicated concentrations and infected with MCMV at an MOI of 1 with the aid of centrifugal enhancement, twice at 800× g for 15 min. Cells were then returned to 37 °C for two hours before cell lysis for further processing. RNA isolation, DNase digestion, cDNA reaction and qPCR were performed, as described previously.

CC(C)C[C@H](NC(=O)[C@H](CS)NC(=O)[C@H](CCC(N)=O)NC(=O)[C@@H]1CCCN1C(=O)[C@@H]1CCCN1C(=O)[C@H](CCCNC(=N)N)NC(=O)[C@H](CCCNC(=N)N)NC(=O)[C@H](CCCNC(=N)N)NC(=O)[C@H](CCC(N)=O)NC(=O)[C@H](CCCNC(=N)N)NC(=O)[C@H](CCCNC(=N)N)NC(=O)[C@H](CCCCN)NC(=O)[C@H](CCCCN)NC(=O)[C@H](CCCNC(=N)N)NC(=O)CN)C(=O)N[C@@H](C)C(=O)N[C@@H](Cc1ccccc1)C(=O)N[C@@H](Cc1ccc(O)cc1)C(=O)N[C@@H](C)C(=O)N[C@@H](CS)C(=O)N[C@@H](Cc1ccccc1)C(=O)N[C@@H](CS)C(=O)O [TAT-I24] (H-GRKKRRQRRRPPQCLAFYACFC-OH)
concentration with morphological changes such as cell aggregation (cells): > 10 µM | HEK293 CC50 (HEK293 cells): 124 µM | hemolysis of human RBCs ([1]; peptide dilutions in PBS or PBS + 10% donor serum, concentrations < 20 µM (1:2 dilutions), OD 450 nm of supernatants, n = 6): neither induce hemolysis | swelling of RBCs (pellet size after centrifugation) ([1]; peptide dilutions prepared in PBS, up to 20 µM): Swelling of red blood cells | number of pM123/IE1-positive cells ([2]; 1 µM peptide): clearly reduced | number of pM123/IE1-positive cells ([2]; 10 µM peptide): clearly reduced | LPS-induced IL-6 release (human PBMCs): No significant differences | LPS-induced TNF-α release (human PBMCs): No significant differences | m123/ie-1 transcript levels relative to infected cells without peptides ([3]; 1 µM peptide): significantly reduced | m123/ie-1 transcript levels relative to infected cells without peptides ([3]; 10 µM peptide): significantly reduced
